From ChEMBL document CHEMBL5113525, “Discovery of the Novel 1H-Pyrrolo[2,3-b]pyridine Derivative as a Potent Type II CDK8 Inhibitor against Colorectal Cancer” (J Med Chem, 2022)
The source made the active and inactive calls. No cut-off for these calls is given here.

Key:
[1] = target: Tyrosine-protein kinase Lck (Homo sapiens) (UniProt P06239); test: Inhibition of human LCK at 1 uM relative to control
[2] = MRT in Sprague-Dawley rat at 10 mg/kg, po measured upto 12 hrs by LC-MS/MS analysis; type: ADME, organism-based; conditions: in vivo
[3] = target: Vascular endothelial growth factor receptor 1 (Homo sapiens) (UniProt P17948); test: Inhibition of human FLT1 at 1 uM relative to control
[4] = target: Cyclin-dependent kinase 8 (Mus musculus) (UniProt Q8R3L8); test: Inhibition of CDK8 in mouse BMDC cells assessed as reduction in IFNgamma-induced STAT1 phosphorylation at S727 residue pretreated with IFNgamma for 2 hrs followed by compound treatment for 24 hrs by Western blot assay; type: cell-based
[5] = target: Mitogen-activated protein kinase kinase kinase 10 (Homo sapiens) (UniProt Q02779); test: Inhibition of human MLK2 at 1 uM relative to control
[6] = target: MAP kinase-interacting serine/threonine-protein kinase 2 (Homo sapiens) (UniProt Q9HBH9); test: Inhibition of human MNK2 at 1 uM relative to control
[7] = target: Epidermal growth factor receptor (Homo sapiens) (UniProt P00533); test: Inhibition of human EGFR at 1 uM relative to control
[8] = target: Phosphatidylinositol 4-phosphate 3-kinase C2 domain-containing subunit alpha (Homo sapiens) (UniProt O00443); test: Inhibition of human PI3K-C2-alpha at 1 uM relative to control
[9] = target: LIM domain kinase 1 (Homo sapiens) (UniProt P53667); test: Inhibition of human LIMK1 at 1 uM relative to control
[10] = target: Mitogen-activated protein kinase 8 (Homo sapiens) (UniProt P45983); test: Inhibition of human JNK1-alpha-2 at 1 uM relative to control
[11] = target: BDNF/NT-3 growth factors receptor (Homo sapiens) (UniProt Q16620); test: Inhibition of human TRKB at 1 uM relative to control
[12] = target: Receptor-type tyrosine-protein kinase FLT3 (Homo sapiens) (UniProt P36888); test: Inhibition of human FLT3 at 1 uM relative to control
[13] = target: Dual specificity protein kinase CLK3 (Homo sapiens) (UniProt P49761); test: Inhibition of human CLK3 at 1 uM relative to control
[14] = Half life in Sprague-Dawley rat at 5 mg/kg, iv measured upto 12 hrs by LC-MS/MS analysis; type: ADME, organism-based; conditions: in vivo
[15] = target: Dual specificity protein kinase CLK2 (Homo sapiens) (UniProt P49760); test: Inhibition of human CLK2 at 1 uM relative to control
[16] = target: Mitogen-activated protein kinase kinase kinase 21 (Homo sapiens) (UniProt Q5TCX8); test: Inhibition of human MLK4 at 1 uM relative to control
[17] = target: Serine/threonine-protein kinase NLK (Homo sapiens) (UniProt Q9UBE8); test: Inhibition of human NLK at 1 uM relative to control
[18] = Oral bioavailability in Sprague-Dawley rat at 10 mg/kg measured upto 12 hrs by LC-MS/MS analysis; type: ADME, organism-based; conditions: in vivo
[19] = target: Citron Rho-interacting kinase (Homo sapiens) (UniProt O14578); test: Inhibition of human CRIK at 1 uM relative to control
[20] = target: Serine/threonine-protein kinase B-raf (Homo sapiens) (UniProt P15056); test: Inhibition of human BRAF at 1 uM relative to control
[21] = target: Dual specificity protein kinase CLK1 (Homo sapiens) (UniProt P49759); test: Inhibition of human CLK1 at 1 uM relative to control
[22] = target: Fibroblast growth factor receptor 1 (Homo sapiens) (UniProt P11362); test: Inhibition of human FGFR1 at 1 uM relative to control
[23] = target: Tyrosine-protein kinase receptor UFO (Homo sapiens) (UniProt P30530); test: Inhibition of human AXL at 1 uM relative to control
[24] = target: Fibroblast growth factor receptor 3 (Homo sapiens) (UniProt P22607); test: Inhibition of human FGFR3 at 1 uM relative to control
[25] = MRT in Sprague-Dawley rat at 5 mg/kg, iv measured upto 12 hrs by LC-MS/MS analysis; type: ADME, organism-based; conditions: in vivo
[26] = target: Discoidin domain-containing receptor 2 (Homo sapiens) (UniProt Q16832); test: Inhibition of human DDR2 at 1 uM relative to control
[27] = target: Cyclin-dependent kinase 5/CDK5 activator 1 (Homo sapiens) (UniProt Q00535+Q15078); test: Inhibition of human CDK5/p35 at 1 uM relative to control; type: protein-complex assay
[28] = target: Aurora kinase C (Homo sapiens) (UniProt Q9UQB9); test: Inhibition of human Aurora C at 1 uM relative to control
[29] = target: Tyrosine-protein kinase Lyn (Homo sapiens) (UniProt P07948); test: Inhibition of human LYN at 1 uM relative to control
[30] = target: Mitogen-activated protein kinase kinase kinase 11 (Homo sapiens) (UniProt Q16584); test: Inhibition of human MLK3 at 1 uM relative to control
[31] = AUC(0 to infinity) in Sprague-Dawley rat at 5 mg/kg, iv measured upto 12 hrs by LC-MS/MS analysis; type: ADME, organism-based; design: time < 12 hrs, dose 5 mg/kg, route iv; conditions: in vivo
[32] = Half life in Sprague-Dawley rat at 10 mg/kg, po measured upto 12 hrs by LC-MS/MS analysis; type: ADME, organism-based; conditions: in vivo
[33] = target: Mitogen-activated protein kinase 10 (Homo sapiens) (UniProt P53779); test: Inhibition of human JNK3 at 1 uM relative to control
[34] = target: Dual specificity protein kinase CLK4 (Homo sapiens) (UniProt Q9HAZ1); test: Inhibition of human CLK4 at 1 uM relative to control
[35] = target: Serine/threonine-protein kinase pim-2 (Homo sapiens) (UniProt Q9P1W9); test: Inhibition of human PIM2 at 1 uM relative to control
[36] = target: Serine/threonine-protein kinase PAK 1 (Homo sapiens) (UniProt Q13153); test: Inhibition of human PAK1 at 1 uM relative to control
[37] = Cmax in Sprague-Dawley rat at 5 mg/kg, iv measured upto 12 hrs by LC-MS/MS analysis; type: ADME, organism-based; design: dose 5 mg/kg, time < 12 hrs, route iv; conditions: in vivo
[38] = target: Hepatocyte growth factor receptor (Homo sapiens) (UniProt P08581); test: Inhibition of human MET at 1 uM relative to control
[39] = target: Tyrosine-protein kinase JAK2 (Homo sapiens) (UniProt O60674); test: Inhibition of human JAK2 at 1 uM relative to control
[40] = target: Glycogen synthase kinase-3 beta (Homo sapiens) (UniProt P49841); test: Inhibition of human GSK3B at 1 uM relative to control
[41] = Clearance in Sprague-Dawley rat at 5 mg/kg, iv measured upto 12 hrs by LC-MS/MS analysis; type: ADME, organism-based; conditions: in vivo
[42] = Cmax in Sprague-Dawley rat at 10 mg/kg, po measured upto 12 hrs by LC-MS/MS analysis; type: ADME, organism-based; design: time < 12 hrs, dose 10 mg/kg, route po; conditions: in vivo
[43] = AUC(0 to infinity) in Sprague-Dawley rat at 10 mg/kg, po measured upto 12 hrs by LC-MS/MS analysis; type: ADME, organism-based; design: dose 10 mg/kg, time < 12 hrs, route po; conditions: in vivo

Serine/threonine-protein kinase pim-2 (Homo sapiens), sequence (Q9P1W9 whole entry, looked up): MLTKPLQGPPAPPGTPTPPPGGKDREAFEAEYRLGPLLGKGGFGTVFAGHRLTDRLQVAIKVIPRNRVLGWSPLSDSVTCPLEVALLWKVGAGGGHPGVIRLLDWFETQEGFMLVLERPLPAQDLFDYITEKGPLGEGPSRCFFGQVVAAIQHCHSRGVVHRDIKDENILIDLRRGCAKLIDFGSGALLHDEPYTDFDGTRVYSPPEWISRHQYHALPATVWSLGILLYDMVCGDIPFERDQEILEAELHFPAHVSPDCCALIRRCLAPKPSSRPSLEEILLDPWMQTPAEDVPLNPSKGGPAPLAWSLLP
Tyrosine-protein kinase Lck (Homo sapiens), sequence (P06239 2-509 limits assumed): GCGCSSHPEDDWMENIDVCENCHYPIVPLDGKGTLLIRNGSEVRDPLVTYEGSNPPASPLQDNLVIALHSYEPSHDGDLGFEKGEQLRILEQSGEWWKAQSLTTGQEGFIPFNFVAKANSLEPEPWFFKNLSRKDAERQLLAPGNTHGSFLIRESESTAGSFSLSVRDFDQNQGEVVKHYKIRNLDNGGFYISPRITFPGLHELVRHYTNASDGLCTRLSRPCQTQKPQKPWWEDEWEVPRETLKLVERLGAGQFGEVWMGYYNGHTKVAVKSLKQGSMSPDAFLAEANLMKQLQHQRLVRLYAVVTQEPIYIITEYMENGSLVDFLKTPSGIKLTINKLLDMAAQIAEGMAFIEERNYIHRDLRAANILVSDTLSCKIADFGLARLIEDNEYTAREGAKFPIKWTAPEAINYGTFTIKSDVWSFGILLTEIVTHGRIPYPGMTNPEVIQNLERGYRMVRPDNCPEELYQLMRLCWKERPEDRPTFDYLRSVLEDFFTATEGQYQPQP
Dual specificity protein kinase CLK3 (Homo sapiens), sequence (P49761 whole entry, looked up): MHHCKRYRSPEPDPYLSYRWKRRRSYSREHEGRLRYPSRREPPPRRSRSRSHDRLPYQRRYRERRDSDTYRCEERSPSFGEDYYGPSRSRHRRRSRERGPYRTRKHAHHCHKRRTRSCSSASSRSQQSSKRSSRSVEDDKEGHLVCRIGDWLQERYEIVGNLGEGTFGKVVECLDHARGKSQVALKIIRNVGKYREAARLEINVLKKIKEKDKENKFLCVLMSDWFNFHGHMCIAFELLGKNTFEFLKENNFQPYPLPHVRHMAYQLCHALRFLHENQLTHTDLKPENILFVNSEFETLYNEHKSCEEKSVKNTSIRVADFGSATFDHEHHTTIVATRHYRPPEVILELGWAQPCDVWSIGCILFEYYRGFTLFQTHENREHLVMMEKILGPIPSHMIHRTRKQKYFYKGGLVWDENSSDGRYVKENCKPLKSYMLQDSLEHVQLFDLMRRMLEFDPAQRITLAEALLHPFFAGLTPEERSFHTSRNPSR
Dual specificity protein kinase CLK2 (Homo sapiens), sequence (P49760 whole entry, looked up): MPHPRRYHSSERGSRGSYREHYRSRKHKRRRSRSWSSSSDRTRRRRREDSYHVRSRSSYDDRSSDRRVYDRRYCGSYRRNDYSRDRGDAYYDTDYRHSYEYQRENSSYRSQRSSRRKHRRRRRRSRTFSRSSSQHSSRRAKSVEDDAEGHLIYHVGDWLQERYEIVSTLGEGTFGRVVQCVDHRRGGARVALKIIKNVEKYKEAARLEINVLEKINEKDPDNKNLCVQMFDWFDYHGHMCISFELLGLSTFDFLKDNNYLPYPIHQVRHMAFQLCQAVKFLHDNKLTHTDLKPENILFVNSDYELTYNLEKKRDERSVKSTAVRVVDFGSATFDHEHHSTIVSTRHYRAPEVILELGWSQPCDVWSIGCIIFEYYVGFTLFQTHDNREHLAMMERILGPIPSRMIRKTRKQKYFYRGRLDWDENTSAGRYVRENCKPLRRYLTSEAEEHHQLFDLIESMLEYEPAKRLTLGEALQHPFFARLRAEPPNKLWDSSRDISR
Hepatocyte growth factor receptor (Homo sapiens), sequence (P08581 whole entry): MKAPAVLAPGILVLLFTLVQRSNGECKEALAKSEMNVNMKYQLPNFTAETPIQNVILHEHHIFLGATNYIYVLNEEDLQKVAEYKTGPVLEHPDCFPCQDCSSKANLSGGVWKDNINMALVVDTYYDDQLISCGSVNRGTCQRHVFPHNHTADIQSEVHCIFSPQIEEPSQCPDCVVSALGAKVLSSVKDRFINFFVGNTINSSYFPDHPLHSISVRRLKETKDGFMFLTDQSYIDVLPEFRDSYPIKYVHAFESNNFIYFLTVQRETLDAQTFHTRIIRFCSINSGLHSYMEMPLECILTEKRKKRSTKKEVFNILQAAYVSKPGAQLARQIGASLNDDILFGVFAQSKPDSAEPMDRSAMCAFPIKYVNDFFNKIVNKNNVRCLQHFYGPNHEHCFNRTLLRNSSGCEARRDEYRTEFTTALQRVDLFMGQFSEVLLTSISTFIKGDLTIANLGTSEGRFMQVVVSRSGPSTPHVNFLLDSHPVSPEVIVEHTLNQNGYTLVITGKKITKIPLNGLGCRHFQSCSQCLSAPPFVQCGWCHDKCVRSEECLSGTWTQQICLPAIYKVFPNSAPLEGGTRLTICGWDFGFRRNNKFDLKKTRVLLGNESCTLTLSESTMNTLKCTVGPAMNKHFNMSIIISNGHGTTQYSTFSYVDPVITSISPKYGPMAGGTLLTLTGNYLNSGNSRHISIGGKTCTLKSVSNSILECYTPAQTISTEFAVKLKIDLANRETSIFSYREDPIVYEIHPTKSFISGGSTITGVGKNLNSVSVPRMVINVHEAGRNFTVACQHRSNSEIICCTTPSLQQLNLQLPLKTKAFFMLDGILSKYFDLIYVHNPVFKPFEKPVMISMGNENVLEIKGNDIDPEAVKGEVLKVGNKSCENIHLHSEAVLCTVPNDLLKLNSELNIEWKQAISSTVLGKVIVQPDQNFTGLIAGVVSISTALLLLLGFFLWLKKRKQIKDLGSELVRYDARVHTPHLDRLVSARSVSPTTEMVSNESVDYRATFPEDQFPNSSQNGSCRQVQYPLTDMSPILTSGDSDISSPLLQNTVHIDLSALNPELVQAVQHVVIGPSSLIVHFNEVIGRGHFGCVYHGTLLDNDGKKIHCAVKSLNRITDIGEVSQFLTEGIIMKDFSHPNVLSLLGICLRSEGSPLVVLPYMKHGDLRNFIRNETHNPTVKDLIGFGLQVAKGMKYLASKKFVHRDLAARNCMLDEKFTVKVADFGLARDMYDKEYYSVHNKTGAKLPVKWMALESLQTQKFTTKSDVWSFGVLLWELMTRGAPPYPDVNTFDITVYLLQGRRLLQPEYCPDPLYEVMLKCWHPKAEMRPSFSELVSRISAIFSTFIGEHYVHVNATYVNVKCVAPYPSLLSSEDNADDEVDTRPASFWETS
Glycogen synthase kinase-3 beta (Homo sapiens), sequence (P49841 whole entry, looked up): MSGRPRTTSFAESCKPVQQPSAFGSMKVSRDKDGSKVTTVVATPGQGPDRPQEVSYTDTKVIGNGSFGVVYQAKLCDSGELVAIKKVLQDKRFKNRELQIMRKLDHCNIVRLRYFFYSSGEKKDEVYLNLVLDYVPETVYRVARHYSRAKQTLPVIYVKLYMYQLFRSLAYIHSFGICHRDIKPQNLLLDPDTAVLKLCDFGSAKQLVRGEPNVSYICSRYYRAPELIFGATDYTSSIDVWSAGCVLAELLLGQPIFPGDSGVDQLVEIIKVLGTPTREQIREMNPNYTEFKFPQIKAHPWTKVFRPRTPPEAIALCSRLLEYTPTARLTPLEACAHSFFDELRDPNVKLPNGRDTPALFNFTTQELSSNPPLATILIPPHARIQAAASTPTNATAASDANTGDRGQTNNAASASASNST
Tyrosine-protein kinase JAK2 (Homo sapiens), sequence (O60674 whole entry): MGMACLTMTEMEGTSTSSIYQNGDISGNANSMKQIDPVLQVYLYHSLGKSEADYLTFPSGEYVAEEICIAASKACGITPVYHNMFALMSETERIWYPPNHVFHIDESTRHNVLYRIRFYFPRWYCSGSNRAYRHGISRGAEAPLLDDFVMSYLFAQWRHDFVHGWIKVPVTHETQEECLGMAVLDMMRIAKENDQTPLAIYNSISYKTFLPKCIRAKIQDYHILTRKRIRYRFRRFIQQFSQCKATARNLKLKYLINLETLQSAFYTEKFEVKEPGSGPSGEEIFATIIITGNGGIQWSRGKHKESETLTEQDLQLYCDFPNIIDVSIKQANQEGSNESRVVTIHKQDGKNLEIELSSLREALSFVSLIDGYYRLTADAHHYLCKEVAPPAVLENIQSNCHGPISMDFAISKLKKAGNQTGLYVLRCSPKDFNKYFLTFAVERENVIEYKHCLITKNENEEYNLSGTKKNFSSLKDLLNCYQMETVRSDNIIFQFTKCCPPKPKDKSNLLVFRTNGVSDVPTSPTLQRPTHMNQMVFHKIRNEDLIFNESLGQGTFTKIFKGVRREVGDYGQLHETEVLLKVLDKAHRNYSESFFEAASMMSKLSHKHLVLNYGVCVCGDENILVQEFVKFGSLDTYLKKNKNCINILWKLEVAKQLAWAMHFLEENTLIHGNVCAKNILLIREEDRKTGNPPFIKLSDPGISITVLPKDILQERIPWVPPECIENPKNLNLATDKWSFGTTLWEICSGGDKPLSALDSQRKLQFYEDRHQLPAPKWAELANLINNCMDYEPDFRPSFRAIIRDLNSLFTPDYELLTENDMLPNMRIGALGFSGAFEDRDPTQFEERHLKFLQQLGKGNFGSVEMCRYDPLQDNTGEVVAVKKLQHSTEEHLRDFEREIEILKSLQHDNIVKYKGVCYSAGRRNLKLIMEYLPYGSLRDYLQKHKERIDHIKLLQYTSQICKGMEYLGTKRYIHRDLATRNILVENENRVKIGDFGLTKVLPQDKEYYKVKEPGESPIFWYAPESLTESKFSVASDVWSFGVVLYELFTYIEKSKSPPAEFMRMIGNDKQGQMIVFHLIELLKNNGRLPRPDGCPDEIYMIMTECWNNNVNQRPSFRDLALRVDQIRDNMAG

With Cc1ccc(NC(=O)CCc2cccc(-c3cnc4[nH]ccc4c3)c2)cc1C(F)(F)F as the compound, how does the inhibition [1] read?
The inhibition was 0%.

What about the MRT [2] of the same compound?
Its MRT is 2.02 h.

What about the inhibition [3] of the same compound?
The inhibition was 1%.

What about the inhibition [4] of the same compound?
The inhibition was “Active”.

And the inhibition [5]?
Its inhibition is 5%.

What about the inhibition [6] of the same compound?
Its inhibition is 10%.

What about the inhibition [7] of the same compound?
The inhibition was 0%.

And the inhibition [8]?
The inhibition was 1%.

And the inhibition [9]?
Its inhibition is 6%.

What about the inhibition [10] of the same compound?
The inhibition was 0%.

And the inhibition [11]?
Its inhibition is 24%.

And the inhibition [12]?
The inhibition was 48%.

And the inhibition [13]?
Its inhibition is 2%.

And the half-life [14]?
Its half-life is 1.63 h.

What about the inhibition [15] of the same compound?
Its inhibition is 9%.

And the inhibition [16]?
Its inhibition is 0%.

And the inhibition [17]?
The inhibition was 0%.

And the bioavailability [18]?
Its bioavailability is 39.8%.

And the inhibition [19]?
Its inhibition is 1%.

And the inhibition [20]?
Its inhibition is 15%.

And the inhibition [21]?
Its inhibition is 10%.

What about the inhibition [22] of the same compound?
Its inhibition is 0%.

And the inhibition [23]?
The inhibition was 38%.

And the inhibition [24]?
Its inhibition is 0%.

What about the MRT [25] of the same compound?
The MRT was 1.76 h.

And the inhibition [26]?
The inhibition was 23%.

What about the inhibition [27] of the same compound?
Its inhibition is 0%.

What about the inhibition [28] of the same compound?
Its inhibition is 8%.

And the inhibition [29]?
The inhibition was 0%.

And the inhibition [30]?
The inhibition was 0%.

And the AUC [31]?
The AUC was 983.09 ng·h/mL.

And the half-life [32]?
The half-life was 1.21 h.

What about the inhibition [33] of the same compound?
The inhibition was 8%.

And the inhibition [34]?
The inhibition was 6%.

And the inhibition [35]?
The inhibition was 0%.

What about the inhibition [36] of the same compound?
The inhibition was 0%.

What about the Cmax [37] of the same compound?
The Cmax was 706 ng/mL.

And the inhibition [38]?
Its inhibition is 0%.

And the inhibition [39]?
Its inhibition is 10%.

And the inhibition [40]?
Its inhibition is 0%.

What about the CL [41] of the same compound?
The CL was 188.7 mL/min/kg.

And the Cmax [42]?
Its Cmax is 498 ng/mL.

And the AUC(0-inf) [43]?
Its AUC(0-inf) is 784 ng·h/mL.
